Measurements: US20060178354A1, “Methods and compositions for the treatment of chronic pain using dhea and derivatives thereof” (priority 2003, published 2006)

Tested on: chronic pain
Assay: Subjective pain reduction in a person with chronic pain (case report, scale of 0-100% reduction)
Type: in vivo, human
Description: The tasks included many different routine physical tasks, but particularly included typing and use of a computer mouse. […] DHEA (50 mg/day) was also taken alone orally for three weeks. […] The degree was subjective based on a scale of 0-100% reduction, where 0% was no pain reduction and 100% was total pain elimination.
In addition to treatment with DHEA alone, the person of Example 1, was also treated with Nortriptyline alone and with a combination of 75 mg per day DHEA and 10 mg per day Nortriptyline.

C[C@]12CC[C@H](O)CC1=CC[C@@H]1[C@@H]2CC[C@]2(C)C(=O)CC[C@@H]12 [DHEA, dehydroepiandrosterone]
reduction in pain (50 mg/day alone orally for three weeks, by the end of the second week, subjective scale 0-100%): approximately 25% | pain remaining, of the original pain (doses of 75 mg and I 00 mg for three weeks each, after 50 mg/day): less than 50%

CNCCC=C1c2ccccc2CCc2ccccc21 [Nortriptyline]
reduction in pain (alone, 10 mg per day): about 20% | reduction in pain compared with 10 mg per day (alone, 25 and 50 mg doses): to greater extent

Cc1ccc(-c2cc(C(F)(F)F)nn2-c2ccc(S(N)(=O)=O)cc2)cc1 [celecoxib]
reduction in pain (400 mg/day alone, subjective scale, 0% no pain reduction, 100% total pain elimination): approximately 25%

NCC1(CC(=O)O)CCCCC1 [gabapeatin, gabapentin]
pain relief (treatment with the drug alone, person with 5 year history of chronic pain): did not result in pain relief
